Assay results reported in ChEMBL document CHEMBL1157358, “Comparative study of the effects of pyridoxine, rifampin, and renal function on hematological adverse events induced by linezolid” (Antimicrob Agents Chemother, 2007).
≈ marks a conversion by molar mass, not a printed value. Calls of active or inactive are those of the source. The calls are words filed in the database; no cut-off is given here.

Assays:
[1] = test system: mitochondrial protein synthesis; test: Toxicity in rat heart mitochondria assessed as inhibition of mitochondrial protein synthesis; settings: pooled result: one value given for 4 cell lines, strains, targets or settings
Streptococcus = test: Antibacterial activity against Streptococcus; type: functional
[2] = Drug level at steady state in human serum at 600 mg administered every 12 hrs; type: ADME, cell-free; settings: read-out: Drug uptake
Enterococcus = test: Antibacterial activity against Enterococcus; type: functional
Staphylococcus aureus = test: Antibacterial activity against Staphylococcus aureus; type: functional
[3] = AUC in human at 600 mg administered every 12 hrs measured after 24 hrs; type: ADME, organism-based; parameters: time < 24 hr, dose 600 mg; settings: plasma
Staphylococcus = test: Antibacterial activity against coagulase-negative Staphylococcus; type: functional
Homo sapiens [4] = organism: Homo sapiens; test: Inhibition of linezolid-induced hematological events in orthopedic implant infection patient assessed as thrombocytopenia incidence relative to control; type: functional; parameters: scale not given: the % may be the effect or the level left
Homo sapiens [5] = organism: Homo sapiens; test: Inhibition of linezolid-induced hematological events in orthopedic implant infection patient assessed as reduction of anemia incidence relative to control; type: functional, organism-based
Homo sapiens [6] = organism: Homo sapiens; test: Inhibition of linezolid-induced hematological events in bone infection patient assessed as rate of anemia at 125 mg relative to control; type: functional; parameters: scale not given: the % may be the effect or the level left
Homo sapiens [7] = test: Inhibition of linezolid-induced hematological events in orthopedic implant infection patient assessed as effect on thrombocytopenia at 200 mg, po once daily; type: functional, organism-based
Homo sapiens [8] = organism: Homo sapiens; test: Inhibition of linezolid-induced hematological events in bone infection patient assessed as rate of thrombocytopenia at 125 mg relative to control; type: functional; parameters: scale not given: the % may be the effect or the level left
Homo sapiens [9] = test: Inhibition of linezolid-induced hematological events in orthopedic implant infection patient assessed as effect on anemia at 200 mg, po once daily; type: functional, organism-based

Work on `CC(=O)NC[C@H]1CN(c2ccc(N3CCOCC3)c(F)c2)C(=O)O1` [LINEZOLID] yielded an IC50 [1] of 3.37 µg/mL (≈ 9.99 µM), an MIC (Streptococcus) of 0.5 µg/mL (≈ 1.48 µM) and a concentration at 12 h [2] of 6000 ng/mL. The MIC (Enterococcus) was 0.5 µg/mL (≈ 1.48 µM), the MIC (Staphylococcus aureus) was 0.5 µg/mL (≈ 1.48 µM) and the AUC at 24 h [3] was 260 µg·h/mL. For the same molecule, the MIC (Staphylococcus) was 0.5 µg/mL (≈ 1.48 µM).
With `CO[C@H]1/C=C/O[C@@]2(C)Oc3c(C)c(O)c4c(O)c(c(/C=N/N5CCN(C)CC5)c(O)c4c3C2=O)NC(=O)/C(C)=C\C=C\[C@H](C)[C@H](O)[C@@H](C)[C@@H](O)[C@@H](C)[C@H](OC(C)=O)[C@@H]1C` [RIFAMPIN] the Activity (Homo sapiens [4]) was 5.8% and the Activity (Homo sapiens [5]) was “Active”.
With `Cc1ncc(CO)c(CO)c1O` [PYRIDOXINE] the Activity (Homo sapiens [6]) was 25%, the Activity (Homo sapiens [7]) was “inactive” and the Activity (Homo sapiens [8]) was 45.8%. The Activity (Homo sapiens [9]) was “inactive”.
